Assay results as given in patent publication US8932558B2, “Multi-subunit biological complexes for treatment of plaque-associated diseases” (Plaxgen Inc, priority 2007, dated 2015).

Assays:
Assay type in all cases: biochemical
[1] = system: thrombus generated from the in vitro assembled plaques complexes; experiment: Thrombolytic assay with PLG cascade proteins; conditions: thrombus from cholesterol, lipids, CP and CO complexes
Experimental: To examine this, both PLG and PLG activators are used to target these clots. Thrombolytic assays are carried out in 100 μl reaction containing thrombus, generated from 100 μl of aggregates or plaque complexes, 1 μg of PLG and 20 ng of u-PA or t-PA in PBS buffer. The reactions are incubated at 37° C. for 1 hr and after every 15 min the tubes are gently tapped to mix the contents. After 1 hr incubation, 1 ml of PBS is added to all the tubes and the samples are visually examined for dissolution of the thrombus.
The thrombus generated from the cholesterol, lipids, CP, and CO complexes are incubated separately with PLG, u-PA and t-PA to examine whether these proteins individually could dissolve the clots.
This could be due to the inhibition of u-PA by the PAI-1 thereby preventing the activation of the PLG. In the next experiment, the aggregates of CP-Cholesterol, CP-Lipids, CP-Cholesterol-Lipids, Cholesterol-Lipids, CO-Cholesterol and CO-Lipids are individually used in CPA for five cycles to assemble complexes followed by their thrombus generation.
The example depicted in FIG. 18 illustrates the dissolution of thrombi by PLG and u-PA. […] Both the clots and the dissolved complexes are further examined under microscope to confirm the visual examination (FIGS. 18a, b, c and d). The thrombus formed in the urine is also dissolved by the action of PLG and u-PA.

[2] = system: iron loaded abeta42 aggregates mixed with CE proteins; experiment: Proteolysis of amyloid plaque complexes assembled on iron loaded abeta42 aggregates; conditions: 20 ng
Experimental: This example illustrates the use of the invention to evaluate the proteolytic degradation of the amyloid complexes. For example, iron loaded abeta42 aggregates are mixed with CE proteins, and the resulting template complexes are treated with five different serine proteases. More specifically, nine independent reactions are carried out with each containing 5.0 μg of the iron-loaded aggregates of abeta42 and 6.0 μg of the CE proteins. After incubation and washing, the complexes are suspended in 50 μl of PBS. The nine complexes are sub-divided into two groups, with six individual complexes comprising Group I and three complexes comprising Group II. In order to interrogate the role of the plasminogen (PLG) activation system, which is implicated in the catabolism of amyloid peptides as well as the pathobiology of amyloid diseases (Melchor J P et al, 2003; Van Nostrand W E et al, 1999; Kranenburg O, 2005), the Group II complexes are subjected to another cycle of binding with both PLG (0.5 μg) and BSA (0.5 μg) proteins. After binding and washing, the PLG and BSA bound plaques complexes are suspended in 50 μl of PBS.
For proteolysis analysis, five of the six Group I template complexes are incubated with 20 ng of each protease (plasnin, chymotrypsin, trypsin, proteinase K and urokinase). The remaining complex is used as a control without protease treatment. Among three complexes of the Group II containing PLG attached to them, one is treated with u-PA (20 ng), a second is treated with t-PA (20 ng) and the third complex is used as a control without protease treatment. All these plaque complexes are incubated at 37° C. for 1 hr and after every 15 min, the tubes are gently tapped in order to encourage mixing. After washing, both the proteases-treated and control plaque complexes are suspended in 20 μl PBS. The complexes are boiled for 10 min with sample solubilizing buffer and loaded in to 4-20% gradient SDS-PAGE. Further, the gels are processed for silver staining and the results are documented for further analysis.

[3] = target: T1, iron-loaded abeta40 templates plaque complex (Homo sapiens, UniProt P00747); experiment: Proteolysis of plaque complexes assembled on iron-loaded abeta40 templates
T1 construct: Lys-Plasminogen (PLG); purchased Enzyme Research Laboratories (IN, USA)
Experimental: In order to verify the preceding results, such experiments are repeated using iron-loaded abeta40 templates for plaque complex formation. Proteins binding to the abeta40 templates appear to be cleared when they are treated with the same proteases.

[4] = target: T2, pre-assembled amyloid plaque like complexes (iron-loaded abeta42 templates) (Homo sapiens, UniProt P00747); experiment: Dissolution of pre-assembled amyloid plaque like complexes; conditions: 20 ng, 37° C., 1 hr
T2 construct: Lys-Plasminogen (PLG); purchased Enzyme Research Laboratories (IN, USA)
Experimental: In order to identify lead compounds able to dissolve the pre-assembled amyloid plaque like complexes, the preceding experiments are repeated to assemble complexes in three cycles using the iron-loaded abeta42 templates. Then, 50 μl of the resulting complexes is incubated with test compound/s (50 ng to 1 μg) for 1 hr at 37° C. followed by washing and analysis of the complexes for their dissolution. For example, 50 μl of the pre-assembled complexes is mixed with u-PA or t-PA (20 ng) at 37° C. for 1 hr followed by washing and protein estimation or gel analysis of the resultant complexes. […] This approach is also useful to optimize u-PA (PGN54) molecule for use as a therapeutic lead to treat patients with advanced amyloid diseases such as Alzheimer. Reducing the amyloid plaque burden or plaque build-up in the cerebral arteries would greatly improve or reverse the pathological symptoms associated with the amyloid diseases. In addition, to test the hypothesis of amyloid plaque burden reduction as an effective strategy, optimized u-PA or other plasminogen activators are used in the animal models of Alzheimer's disease.

T2 sequence (P00747 97-810, one chain of several): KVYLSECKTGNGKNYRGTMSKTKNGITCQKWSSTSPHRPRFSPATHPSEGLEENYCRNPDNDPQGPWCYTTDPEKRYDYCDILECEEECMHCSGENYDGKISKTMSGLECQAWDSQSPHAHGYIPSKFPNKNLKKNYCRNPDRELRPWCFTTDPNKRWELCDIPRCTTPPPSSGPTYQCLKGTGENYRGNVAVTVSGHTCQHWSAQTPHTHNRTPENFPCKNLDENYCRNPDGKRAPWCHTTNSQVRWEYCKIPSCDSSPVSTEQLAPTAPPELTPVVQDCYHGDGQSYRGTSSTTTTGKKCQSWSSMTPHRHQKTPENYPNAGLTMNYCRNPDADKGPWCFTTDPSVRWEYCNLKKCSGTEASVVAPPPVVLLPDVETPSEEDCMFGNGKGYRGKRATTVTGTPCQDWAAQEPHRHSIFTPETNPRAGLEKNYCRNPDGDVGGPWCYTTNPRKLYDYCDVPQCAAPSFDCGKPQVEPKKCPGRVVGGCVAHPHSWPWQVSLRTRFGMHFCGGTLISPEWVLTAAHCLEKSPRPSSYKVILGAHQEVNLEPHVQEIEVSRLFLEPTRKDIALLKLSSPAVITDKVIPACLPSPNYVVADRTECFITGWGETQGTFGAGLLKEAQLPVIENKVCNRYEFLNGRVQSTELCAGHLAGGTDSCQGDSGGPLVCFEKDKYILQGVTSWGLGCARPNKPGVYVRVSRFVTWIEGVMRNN
T1 sequence (P00747 97-810, one chain of several): as above

- Activation of PLG-bound complex [3]: activate the PLG-bound complex
Substance: t-PA: tissue-type plasminogen activator
- Dissolution of thrombus, protein incubated separately [1]: did not show any dissolution
- Activation of PLG on PLG/BSA-attached complexes [2]: the inactive PLG is converted into active plasmin
- Protein concentration of pre-assembled complexes after incubation [4]: show reduction in the protein concentration
